The record followed here is ChEMBL document CHEMBL1201862, “PubChem BioAssay data set” (2004).

Some test systems named below: Hs-578T; COLO 205; EKVX; IGROV-1; K562; NCI/ADR-RES; SNB-19; LOX IMVI; MOLT-4; PC-3; RPMI-8226; ACHN; SK-MEL-28; SF-539; SK-OV-3; CAKI-1; TK-10; SK-MEL-2; SW-620; Malme-3M.
Common to all, as to experiment: NCI-60 cell line screen, 48 h

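Tested at 5 concentrations; 48 h exposure; 96-well plates; endpoints linearly interpolated, else capped at highest concentration. GI50: concentration for 50% inhibition of growth.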 Activity calls are given as the source filed them. Cut-off read from the data, not from the text of the source: active = GI50 up to about 1.1 µM and inactive = higher. Some results are limits rather than exact numbers.

On to `CN(C)c1ccc(/C=C2\N=C(c3ccccc3)N(c3nc4c(Cl)cc(Cl)cc4s3)C2=O)cc1`, for which the GI50 in the assay on Hs-578T is 27 µM (inactive); in the assay with COLO 205, 55.8 µM (inactive); in the assay on EKVX it was 21.8 µM (inactive); with IGROV-1, 41 µM (inactive); in the assay with K562, 31.6 µM (inactive); in the assay on NCI/ADR-RES, 43.7 µM (inactive). The GI50 in the assay with SNB-19 is 82.4 µM (inactive); with LOX IMVI, 38.3 µM (inactive); in the assay on MOLT-4, 22.6 µM (inactive); in the assay with PC-3, 32.4 µM (inactive); in the assay on RPMI-8226, 14.9 µM (inactive); in the assay on ACHN, 59 µM (inactive). Moreover, the GI50 in the assay on SK-MEL-28 is 54.6 µM (inactive); in the assay with SF-539, > 100 µM (inactive); with SK-OV-3 it was > 100 µM (inactive); in the assay with CAKI-1 it was 41.8 µM (inactive); with TK-10, 85.7 µM (inactive); with SK-MEL-2, 49.9 µM (inactive). For the same compound, the GI50 in the assay on SW-620 was 46.6 µM (inactive).
As to `O=C(Nc1ccccc1Cl)c1cc(S(=O)(=O)Nc2n[nH]c(=O)n2-c2ccccc2)c(S)cc1Cl`, the GI50 in the assay on Hs-578T was > 100 µM (inactive); with COLO 205, > 100 µM (inactive); in the assay on EKVX it was > 100 µM (inactive); in the assay with IGROV-1, > 100 µM (inactive); in the assay on NCI/ADR-RES it was > 100 µM (inactive); in the assay on SNB-19, 92.3 µM (inactive). For the same compound, the GI50 with LOX IMVI, in the assay with MOLT-4, with RPMI-8226, in the assay on SK-MEL-28, in the assay with SF-539 and in the assay with Malme-3M was > 100 µM (inactive) throughout. In addition, the GI50 in the assay with SK-OV-3, in the assay with CAKI-1, in the assay with SK-MEL-2 and in the assay on SW-620 was > 100 µM (inactive) throughout.
Regarding `COc1ccc(-c2cc(=O)c3c(OC)c(OC)c(OC)c(OC)c3o2)c(OC)c1`, the GI50 with Hs-578T is 18 µM (inactive); in the assay on COLO 205, 17.1 µM (inactive); in the assay with EKVX it was 29.2 µM (inactive); in the assay with IGROV-1 it was 36.9 µM (inactive); in the assay with K562, 48.4 µM (inactive); in the assay with NCI/ADR-RES, 16.8 µM (inactive). In addition, the GI50 in the assay on SNB-19 is 32.8 µM (inactive); in the assay with LOX IMVI it was 17.2 µM (inactive); with MOLT-4 it was 26.4 µM (inactive); in the assay with RPMI-8226 it was 33 µM (inactive); in the assay with ACHN, 24.8 µM (inactive); with SK-MEL-28, 42.9 µM (inactive). Moreover, the GI50 in the assay with SF-539 was 61.4 µM (inactive); in the assay on Malme-3M, 30.5 µM (inactive); with SK-OV-3, 39.8 µM (inactive); in the assay with CAKI-1 it was 29.8 µM (inactive); in the assay on TK-10, 37.2 µM (inactive); in the assay with SK-MEL-2, 19.1 µM (inactive). For the same compound, in the assay with SW-620, the GI50 was 31.1 µM (inactive).
With `O=C1CC2c3ccccc3CCC2c2ccccc21` (configuration not stated), the GI50 in the assay on Hs-578T is 12.4 µM (inactive); in the assay with COLO 205, 2.93 µM (inactive); in the assay on EKVX, 2.58 µM (inactive); with IGROV-1 it was 26.3 µM (inactive); with K562 it was 6.32 µM (inactive); in the assay on SNB-19 it was 15.1 µM (inactive). The GI50 is 15.8 µM (inactive) with LOX IMVI; 32.3 µM (inactive) in the assay on MOLT-4; 26.2 µM (inactive) with PC-3; 43.5 µM (inactive) in the assay with RPMI-8226; 28.2 µM (inactive) with ACHN; 36.1 µM (inactive) in the assay with SK-MEL-28. Further, the GI50 with SF-539 is 16.3 µM (inactive); with SK-OV-3, 51.2 µM (inactive); in the assay with CAKI-1, 33.2 µM (inactive); in the assay with TK-10, 35.2 µM (inactive); with SK-MEL-2 it was 16.8 µM (inactive); in the assay with SW-620, 26.5 µM (inactive).
For the compound `COc1ccc(/C=C2\S/C(=N/Nc3nc(-c4ccccc4)cs3)NC2=O)cc1OC`, the GI50 in the assay with Hs-578T is 24.6 µM (inactive); in the assay on COLO 205 it was 35.6 µM (inactive); in the assay on EKVX it was 22.6 µM (inactive); with IGROV-1, 12.6 µM (inactive); with NCI/ADR-RES, 20.7 µM (inactive); with SNB-19, 25.6 µM (inactive). The GI50 was 23.3 µM (inactive) in the assay with LOX IMVI; 3.07 µM (inactive) in the assay with MOLT-4; 17.4 µM (inactive) in the assay with PC-3; 24.7 µM (inactive) in the assay on ACHN; 32.7 µM (inactive) in the assay with SK-MEL-28; 24.3 µM (inactive) with SF-539. For the same compound, the GI50 in the assay with SK-OV-3 is 21.5 µM (inactive); in the assay on CAKI-1 it was 31.8 µM (inactive); in the assay with TK-10 it was 20.5 µM (inactive); in the assay with SK-MEL-2 it was 19.1 µM (inactive); in the assay on SW-620, 30.3 µM (inactive).
For the compound `N=c1oc2ccccc2cc1C(=O)Nc1ccccn1`, the GI50 is 75 µM (inactive) in the assay on Hs-578T; > 100 µM (inactive) with COLO 205; 33.2 µM (inactive) in the assay on EKVX; 51.9 µM (inactive) in the assay on IGROV-1; > 100 µM (inactive) with K562; > 100 µM (inactive) in the assay on NCI/ADR-RES. Moreover, the GI50 is > 100 µM (inactive) with SNB-19; 54 µM (inactive) in the assay with LOX IMVI; 66.4 µM (inactive) with MOLT-4; > 100 µM (inactive) with RPMI-8226; 53.1 µM (inactive) in the assay on ACHN; > 100 µM (inactive) with SK-MEL-28. Further, the GI50 in the assay with SF-539 was 65.6 µM (inactive); in the assay with Malme-3M, 14 µM (inactive); in the assay on SK-OV-3, > 100 µM (inactive); with CAKI-1 it was 45.4 µM (inactive); in the assay on SK-MEL-2 it was 29.4 µM (inactive); in the assay with SW-620, > 100 µM (inactive).
In the case of `C=CCNC1=C2C[C@@H](C)C[C@@H](OC)[C@H](OC(=O)CCN)[C@H](C)/C=C(\C)[C@@H](OC(N)=O)[C@H](OC)/C=C\C=C(/C)C(=O)NC(=CC1=O)C2=O`, the GI50 is 14.5 µM (inactive) with Hs-578T; 0.718 µM (active) with COLO 205; 8.75 µM (inactive) with EKVX; 4.74 µM (inactive) in the assay with IGROV-1; 3.99 µM (inactive) with K562; 76.2 µM (inactive) in the assay on NCI/ADR-RES. Besides, the GI50 with SNB-19 was 6.27 µM (inactive); in the assay on LOX IMVI, 3.03 µM (inactive); in the assay on MOLT-4, 3.86 µM (inactive); in the assay with RPMI-8226, 6.08 µM (inactive); with ACHN, 12.6 µM (inactive); with SK-MEL-28, 14.5 µM (inactive). The GI50 was 2.67 µM (inactive) in the assay with Malme-3M; 1.35 µM (inactive) with SK-OV-3; 12.2 µM (inactive) in the assay on CAKI-1; 2.17 µM (inactive) in the assay with TK-10; 1.9 µM (inactive) with SK-MEL-2; 3.6 µM (inactive) in the assay with SW-620.
Consider `NC(=S)NNC(=S)NC(=O)c1ccco1`, for which the GI50 in the assay with Hs-578T, with EKVX, with IGROV-1, with K562, with NCI/ADR-RES and in the assay on SNB-19 was > 10 µM (inactive) throughout. For the same compound, the GI50 in the assay on LOX IMVI, in the assay on MOLT-4, in the assay on RPMI-8226, in the assay with ACHN, with SK-MEL-28 and with Malme-3M was > 10 µM (inactive) throughout. Further, the GI50 in the assay with SK-OV-3, in the assay on CAKI-1, in the assay with SK-MEL-2 and in the assay with SW-620 was > 10 µM (inactive) each time.
With `CCc1nn(CN2CCOCC2)c(=S)n1/N=C/c1ccc(-c2ccc(Cl)cc2)o1`, the GI50 in the assay with Hs-578T, in the assay on EKVX, with IGROV-1, in the assay with K562, in the assay with NCI/ADR-RES and in the assay on LOX IMVI was > 100 µM (inactive) each time. Also, the GI50 with MOLT-4 is > 100 µM (inactive); in the assay on PC-3, > 100 µM (inactive); in the assay with RPMI-8226, 51.5 µM (inactive); with ACHN, > 100 µM (inactive); in the assay on SK-MEL-28, > 100 µM (inactive); in the assay with SF-539 it was > 100 µM (inactive). Further, the GI50 in the assay on CAKI-1, in the assay on TK-10, in the assay on SK-MEL-2 and with SW-620 was > 100 µM (inactive) throughout.
In the case of `COC(=O)N[C@H](C(=O)O)C(C)O[Si](C)(C)C(C)(C)C` (some centres not stated), the GI50 in the assay with Hs-578T, in the assay with COLO 205, in the assay with EKVX, with IGROV-1, with K562 and with NCI/ADR-RES was > 100 µM (inactive) throughout. In addition, the GI50 in the assay on SNB-19, in the assay with LOX IMVI, with MOLT-4, with PC-3, in the assay on RPMI-8226 and with ACHN was > 100 µM (inactive) each time. Further, the GI50 with SK-MEL-28, in the assay with SF-539, in the assay on Malme-3M, in the assay on SK-OV-3, with TK-10 and with SW-620 was > 100 µM (inactive) throughout.
Consider `CC1=CC(C/C(C)=C/COc2ccc3ccc(=O)oc3c2)OC1=O` (configuration not stated), for which the GI50 in the assay with Hs-578T is > 100 µM (inactive); with COLO 205, > 100 µM (inactive); in the assay with EKVX, > 100 µM (inactive); in the assay on IGROV-1, > 100 µM (inactive); with K562, 59.8 µM (inactive); in the assay with NCI/ADR-RES it was 27.4 µM (inactive). Moreover, the GI50 with SNB-19 was > 100 µM (inactive); in the assay on LOX IMVI, > 100 µM (inactive); in the assay on MOLT-4 it was 49.8 µM (inactive); in the assay on PC-3, 68.9 µM (inactive); in the assay with ACHN it was > 100 µM (inactive); in the assay with SK-MEL-28, > 100 µM (inactive). Besides, the GI50 in the assay on SF-539, in the assay on SK-OV-3, with CAKI-1, in the assay on TK-10 and with SW-620 was > 100 µM (inactive) throughout.
